What is called IC50 is the concentration at which inhibition is half-maximal. As a reminder, the ED50 is the dose at which the effect has come halfway, by size or by number of responders.

Experimental findings from patent publication US5216001A, “Indole derivatives” (H. Lunbeck A/S, priority 1990, dated 1993) are described below.

Read-outs that look alike come from different tables or passages of the source.

One experiment addresses T1, dopamine D-2 receptors (Rattus norvegicus, UniProt P61169).
T1 construct: striatal tissue is dissected and weighed; from tissue; host or cells: corpus striatum membranes of male Wistar rats
Kind of experiment: inhibition of 3H-spiperone binding to dopamine D-2 receptors in rat corpus striatum in vitro. The protocol:
INHIBITION OF ^3 H-SPIPERONE BINDING TO DOPAMINE D-2 RECEPTORS IN RAT CORPUS STRIATUM IN VITRO
By this method the inhibition by drugs of the binding of ^3 H-spiperone (0.5 nM) to dopamine D-2 receptors in membranes from rat corpus striatum is determined in vitro. Method and results in Hyttel and Larsen, J. Neurochem, 44, 1615-1622, 1985).
Male Wistar (Mol:Wistar) rats (125-250 g) are sacrificed and striatal tissue is dissected and weighed. The tissue is homogenized (Ultra Turrax, 10 sec.) in 10 ml of ice-cold 50 mM K-phosphate buffer pH 7.4 (at 25° C.). The homogenate is centrifuged twice at 20,000 g for 10 min. at 4° C. with rehomogenization of the pellet in 10 ml ice-cold buffer. The final pellet is homogenized in 1300 vol (w/v) ice-cold buffer.
Incubation tubes kept on ice in triplicate receive 100 μl of drug solution in water (or water for total binding) and 4000 μl of tissue suspension (final tissue content corresponds to 3.08 mg original tissue). The binding experimental is initiated by addition of 100 μl of ^3 H-spiperone (final concentration 0.5 nM) and by placing the tubes in a 37° C. water bath. After incubation for 10 min. the samples are filtered under vacuum (0-50 mBar) through Whatman GF/F filters (25 mm). The tubes are rinsed with 5 ml ice-cold buffer which are then poured on the filters. Thereafter, the filters are washed with 2×5 ml of buffer. The filters are placed in counting vials and 4 ml of appropriate scintillation fluid (e.g. Picofluor ™15) are added. After shaking for 1 h and storage 2 hrs in the dark the content of radioactivity is determined by liquid scintillation counting. Specific binding is obtained by subtracting the nonspecific binding in the presence of 10 μM of 6,7-ADTN.
(§1) For determination of the inhibition of binding five concentrations of drugs covering 3 decades are used.
England, specific activity 15-25 Ci/mmol.

Another experiment deals with α1 adrenoceptors. Put plainly: inhibition of 3H-prazosin binding to α1 adrenoceptors in rat brain in vitro. The settings on record: 3H-prazosin 0.25 nM, rat brain membranes, read-out: Binding IC50, 3H Praz. The protocol:
INHIBITION OF ^3 H-PRAZOSIN BINDING TO α1 ADRENOCEPTORS IN RAT BRAIN IN VITRO
Method and results in Hyttel and Larsen, J. Neurochem, 44, 1615-1622, 1985; Skarsfeldt and Hyttel, Eur. J. Pharmacol. 125, 323-340, 1986.
Male Wistar (Mol:Wist) rats (125-200 g) are sacrificed and brain tissue is dissected and weighed. The tissue is homogenized (Ultra Turrax, 10 sec.) in 10 ml of ice-cold […] Tris buffer pH 7.7 (at 25° C.). The homogenate is centrifuged twice at 20,000 g for 10 min. at 4° C. with rehomogenization of the pellet in 10 ml ice-cold buffer. The final pellet is homogenized in 400 vol (w/v) ice-cold buffer.
Incubation tubes kept on ice in triplicate receive 100 μl of drug solution in water (or water for total binding) and 4000 μl of tissue suspension (final tissue content corresponds to 10 mg original tissue). The binding experiment is initiated by addition of 100 μl of ^3 H-Prazosin (final concentration 0.25 nM) and by placing the tubes in a 25° C. water bath. After incubation for 20 min. the samples are filtered under vacuum (0-50 mBar) through Whatman GF/F filters (25 mm). The tubes are rinsed with 5 ml ice-cold buffer which then are poured on the filters. Thereafter, the filters are washed with 5 ml of buffer. The filters are placed in counting vials and 4 ml of appropriate scintillation fluid (e.g. Picofluor™15) are added. After shaking for 1 h and storage 2 hrs in the dark the content of radioactivity is determined by liquid scintillation counting. Specific binding is obtained by subtracting the nonspecific binding in the presence of 1 μM of Prazosin.
as §1
The measured cpm are plotted against drug concentration on semilogarithmic paper and the best fitting S-shaped curve is drawn. The IC50 value is determined as the concentration at which the binding is 50% of the total binding in control samples minus the nonspecific binding in the presence of 1 μM of Prazosin. ^3 H-Prazosin=[furoyl-5-^3 H]-Prazosin from New England Nuclear, specific activity approximately 20 Ci/mmol.

In experiment [1] the target is T2, serotonin S2 (5-HT2) receptors (Rattus norvegicus, UniProt P14842).
T2 construct: cortical tissue is dissected and weighed; from tissue; host or cells: cerebral cortex membranes of male Wistar (Mol:Wist) rats
T2 sequence (P14842 whole entry): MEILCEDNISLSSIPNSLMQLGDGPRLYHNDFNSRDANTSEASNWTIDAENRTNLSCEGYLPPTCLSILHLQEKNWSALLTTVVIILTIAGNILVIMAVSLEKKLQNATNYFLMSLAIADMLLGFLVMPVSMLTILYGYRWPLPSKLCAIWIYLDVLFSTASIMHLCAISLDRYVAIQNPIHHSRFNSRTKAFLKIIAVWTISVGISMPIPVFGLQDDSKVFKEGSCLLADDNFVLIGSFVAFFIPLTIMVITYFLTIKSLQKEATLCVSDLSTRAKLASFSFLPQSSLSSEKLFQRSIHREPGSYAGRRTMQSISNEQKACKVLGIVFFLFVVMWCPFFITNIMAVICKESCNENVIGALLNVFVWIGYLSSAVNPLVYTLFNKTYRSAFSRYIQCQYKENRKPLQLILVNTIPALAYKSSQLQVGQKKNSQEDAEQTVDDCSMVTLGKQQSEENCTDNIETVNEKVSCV
Put plainly: inhibition of 3H-ketanserin binding to serotonin S2 (5-HT2) receptors in rat cortex in vitro. The settings on record: 3H-ketanserin 0.5 nM, rat cortex membranes, read-out: Binding IC50, 3H Ket. The protocol:
Method in Hyttel, Pharmacology & Toxicology, 61, 126-129. 1987.
Male Wistar (Mol:Wist) rats (125-250 g) are sacrifices and cortical tissue is dissected and weighed. The tissue is homogenized (Ultra Turrax, 10 sec.) in 10 ml of ice-cold 50 mM tris buffer pH 7.7 (at 25° C.). The centrifuge glassware used in this step has been rinsed by sonication for 10 min. in ethanol. The homogenate is centrifuged twice at 20,000 g for 10 min. at 4° C. with rehomogenization of the pellet in 10 ml ice-cold buffer. The final pellet is homogenized in 500 vol (w/v) ice-cold buffer.
Incubation tubes kept on ice in triplicate receive 100 μl of drug solution in water (or water for total binding) and 2000 μl of tissue suspension (final tissue content corresponds to 4 mg original tissue). […] After incubation for 30 min. the samples are filtered under vacuum (0-50 mBar) through Whatman GF/F filters (25 mm). The tubes are rinsed with 5 ml ice-cold buffer which are then poured on the filters. Thereafter, the filters are washed with 2×5 ml of buffer. The filters are placed in counting vials and 4 ml of appropriate scintillation fluid (e.g., Picofluor™15) are added. After shaking for 1 h and storage 2 hrs in the dark the content of radioactivity is determined by liquid scintillation counting. Specific binding is obtained by subtracting the nonspecific binding in the presence of 1 μM mianserin. For determination of the inhibition of binding five concentrations of drugs covering 3 decades are used.
The IC50 value is determined as the concentration at which the binding is 50% of the total binding in control samples minus the nonspecific binding in the presence of 1 μM mianserin.

The next experiment deals with T3, 5-HT2 (Rattus norvegicus, UniProt P14842).
T3 construct: Four rats, male Wistar (Mol:Wist) SPF rats weighing 170-240 g; from tissue; host or cells: living male Wistar (Mol:Wist) SPF rats (in vivo, endogenous receptor)
T3 sequence (P14842 whole entry): as above
Kind of experiment: quipazine inhibition (quipazine-induced head twitches in rats). It is filed as in vivo. The protocol: Quipazine is a 5-HT2 agonist, which induces head twitches in rats. The test is a test for 5-HT2 -antagonistic effect testing the ability to inhibit head twitches. The method and test results for some reference substances are published by Arnt et al. (Drug Development Research, 16, 59-70, 1989).
Test substance is injected s.c. 2 hrs before or p.o. 24 hrs before quipazine administration (6.8 mg/kg, s.c., dimaleate). Four rats, male Wistar (Mol:Wist) SPF rats weighing 170-240 g, are used at each dose level. A control group is included each test day. By repeated testing (2, 24 hrs) the control group is the same, however. After quipazine administration the rats are individually placed in the observation cages and head twitches are counted in an observation period of 30-40 min. after injection of quipazine.
Total number of head twitches in each group is calculated and the result for each dose is expressed as per cent of the response in the control group. ED50 values are calculated by log-probit analysis. The test must be repeated if the average number of head twitches is lower than 9 in the control group.

Setting [2] is: 3H-spiperone 0.5 nM, rat corpus striatum membranes, in vitro, read-out: Binding IC50, 3H Spi.

T1 sequence (P61169 whole entry): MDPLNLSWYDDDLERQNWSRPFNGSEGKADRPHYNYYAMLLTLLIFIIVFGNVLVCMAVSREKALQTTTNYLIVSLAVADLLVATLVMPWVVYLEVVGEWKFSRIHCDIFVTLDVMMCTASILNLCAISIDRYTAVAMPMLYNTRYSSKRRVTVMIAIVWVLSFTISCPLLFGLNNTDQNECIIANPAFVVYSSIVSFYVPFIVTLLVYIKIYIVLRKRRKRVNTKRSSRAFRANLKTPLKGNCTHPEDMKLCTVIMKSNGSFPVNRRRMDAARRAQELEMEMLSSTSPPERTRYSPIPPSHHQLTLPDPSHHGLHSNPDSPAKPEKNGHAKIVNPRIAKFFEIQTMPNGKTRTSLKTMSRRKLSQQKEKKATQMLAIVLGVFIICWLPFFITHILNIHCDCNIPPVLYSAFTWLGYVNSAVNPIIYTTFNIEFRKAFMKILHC

For `CC(C)N1CCN(CCN2CC=C(c3cn(-c4ccc(F)cc4)c4cc(Cl)ccc34)CC2)C1=O` [Compound 2a, 6-chloro-1-(4-fluorophenyl)-3-[1-[2-[3-(2-propyl)-2-imidazolidinon-1-yl]ethyl]-1,2,3,6-tetrahydropyridin-4-yl]-1H-indole], the IC50 on dopamine D-2 receptors is 66 nM; on α1 adrenoceptors, 55 nM; in experiment [1] it was 3.5 nM.

Consider `CC(C)N1CCN(CCN2CCC(c3cn(-c4ccc(F)cc4)c4cc(C(F)(F)F)ccc34)CC2)C1=O` [Compound 4c, 1-(4-fluorophenyl)-3-[1-[2-[3-(2-propyl)-2-imidazolidinon-1-yl]ethyl]-4-piperidyl]-6-trifluoromethyl-1H-indole], for which the figures for the 50% inhibitory concentration (IC50) (on dopamine D-2 receptors (setting [2]); on α1 adrenoceptors; in experiment [1]) were 280 nM, 91 nM and 2.9 nM, respectively.

In the case of `O=C1CCCN1CCN1CCC(c2cn(-c3ccc(F)cc3)c3cc(C(F)(F)F)ccc23)CC1` [Compound 4e, 1-(4-fluorophenyl)-3-[1-[2-(2-pyrrolidinon-1-yl)ethyl]-4-piperidyl]-6-trifluoromethyl-1H-indole], the IC50 on dopamine D-2 receptors (setting [2]) was found to be 300 nM; at α1 adrenoceptors, 49 nM; in experiment [1], 2.8 nM.

As for `COc1ccc2c(C3CCN(CCN4CCN(C(C)C)C4=O)CC3)cn(-c3ccc(F)cc3)c2c1` [Compound 4i, 1-(4-fluorophenyl)-6-methyoxy-3-[1-[2-[3-(2-propyl)-2-imidazolidinon-1-yl]ethyl]-4-piperidyl]-1H-indole], the IC50 was determined as 710 nM at dopamine D-2 receptors (setting [2]), 140 nM at α1 adrenoceptors and 7.1 nM in experiment [1].

As to `CC(C)c1ccc2c(C3CCN(CCN4CCN(C(C)C)C4=O)CC3)cn(-c3ccc(F)cc3)c2c1` [Compound 5c, 1-(4-fluorophenyl)-6-(2-propyl)-3-[1-[2-[3-(2-propyl)-2-imidazolidinon-1-yl]ethyl]-4-piperidyl]-1H-indole], the IC50 was determined as 2000 nM on dopamine D-2 receptors (setting [2]), 730 nM at α1 adrenoceptors and 16 nM in experiment [1].

Regarding `Cc1ccc2c(C3CCN(CCNC(=O)NC(C)C)CC3)cn(-c3ccc(F)cc3)c2c1` [Compound 9a, 1-(4-fluorophenyl)-3-[1-[2-[3-(2-propyl)-1-ureido]-1-ethyl]-4-piperidyl]-6-methyl-1H-indole], the IC50 at dopamine D-2 receptors (setting [2]) stood at 300 nM; on α1 adrenoceptors it was 76 nM; in experiment [1] it was 1.8 nM.

On to `Cc1ccc2c(C3CCN(CCNC(=O)N(C)C)CC3)cn(-c3ccc(F)cc3)c2c1` [Compound 9b, 3-[1-[2-(3,3-dimethyl-1-ureido)-1-ethyl]-4-piperidyl]-1-(4-fluorophenyl)-6-methyl-1H-indole], for which the 50% effective dose (ED50) on 5-HT2 (po, 24 h, read-out: Quipazine inhibition ED50, 24h (po)) was < 0.14 µmol/kg; on 5-HT2 (sc, 2 h, read-out: Quipazine inhibition ED50, 2h (sc)) it was 0.12 µmol/kg. For the same compound, in experiment [1], the IC50 is 2.6 nM.

In the case of `CC(C)N1CCN(CCN2CCC(c3cn(-c4ccc(F)cc4)c4cc(Cl)ccc34)CC2)C1=S` [Compound 13a, 6-chloro-1-(4-fluorophenyl)-3-[1-[2-[3-(2-propyl)-2-imidazolidinthion-1-yl]ethyl]-4-piperidyl]-1H-indole], the concentration for half-maximal inhibition (IC50) was found to be 270 nM at dopamine D-2 receptors (setting [2]), 110 nM at α1 adrenoceptors and 4.4 nM in experiment [1].

As for `Cc1ccc2c(C3CCN(CCN4CCN(C(C)C)C4=O)CC3)cn(-c3ccsc3)c2c1` [Compound 15c, 6-methyl-3-[1-[2-[3-(2-propyl)-2-imidazolidinon-1-yl]ethyl]-4-piperidyl]-1-(3-thie-nyl)-1H-indole], the half-maximal inhibitory concentration (IC50) on dopamine D-2 receptors (setting [2]) came out at 1000 nM; on α1 adrenoceptors it was 330 nM; in experiment [1] it was 2.6 nM.

For `Cc1ccc2c(C3CCN(CCN4CCN(C(C)C)C4=O)CC3)cn(-c3ccccc3F)c2c1` [Compound 15f, 1-(2-fluorophenyl)-3-[1-[2-[3-(2-propyl)-2-imidazolidinon-1-yl]ethyl]-4-piperidyl]-6-methyl-1H-indole], the half-maximal inhibitory concentration (IC50) on dopamine D-2 receptors (setting [2]) stood at 730 nM; on α1 adrenoceptors it was 370 nM; in experiment [1], 2.5 nM.

As to `Cc1ccc2c(C3CCN(CCN4CCN(C(C)C)C4=O)CC3)cn(-c3cccc(F)c3)c2c1` [Compound 15g, 1-(3-fluorophenyl)-3-[1-[2-[3-(2-propyl)-2-imidazolidinon-1-yl]ethyl]-4-piperidyl]-6-methyl-1H-indole], the IC50 on dopamine D-2 receptors (setting [2]) stood at 3200 nM; on α1 adrenoceptors, 670 nM; in experiment [1], 11 nM.

As for `Cc1ccc2c(C3CCN(CCN4CCN(C(C)C)C4=O)CC3)cn(-c3ccc(Cl)cc3)c2c1` [Compound 15h, 1-(4-chlorophenyl)-3-[1-[2-[3-(2-propyl)-2-imidazolidinon-1-yl]ethyl]-4-piperidyl]-6-methyl-1H-indole], the half-maximal inhibitory concentration (IC50) on dopamine D-2 receptors (setting [2]) came to 620 nM; on α1 adrenoceptors, 450 nM; in experiment [1], 6 nM.

As for `Cc1c(C2CCN(CCN3CCNC3=O)CC2)c2ccccc2n1-c1ccc(F)cc1` [Compound 24c, 1-(4-fluorophenyl)-3-[1-[2-(2-imidazolidinon-1-yl)ethyl]-4-piperidyl]-2-methyl-1H-indole], the IC50 came out at 380 nM on dopamine D-2 receptors (setting [2]), 61 nM at α1 adrenoceptors and 0.69 nM in experiment [1].
